# Measurements as given in patent US8889677B2, “Substituted triazoles useful as mGlu5 receptor modulators” (Boehringer Ingellheim International GmbH, priority 2012, dated 2014).
# Molecular target: T1, human recombinant mGluR5 (Homo sapiens, UniProt P41594)
# T1 construct: expressed in transfected cells; host or cells: HEK 293 cell line cultured with tetracycline, hygromycin and geneticin; tetracycline removed 3-7 days before the assay
# Assay: positive modulation of mGluR5, calcium based FLIPR assay in HEK 293 cells
# Conditions: HEK 293 cell line expressing human recombinant mGluR5; EC50 of the modulation of the glutamate response (glutamate approx. 5% basal stimulation); peak height of Ca release fluorescence signal
# In short: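 Potentiation EC50 derived by nonlinear fit of peak calcium fluorescence after a near-5%-maximal glutamate challenge, following 5 min compound exposure (intrinsic activity also recorded). Dye-loaded recombinant human mGluR5 HEK 293 cells in Ringer solution pH 7.4, 1% DMSO; plate controls were vehicle (100%) and 10 μM CDPPB (200%).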
# T1 sequence (P41594 21-1212): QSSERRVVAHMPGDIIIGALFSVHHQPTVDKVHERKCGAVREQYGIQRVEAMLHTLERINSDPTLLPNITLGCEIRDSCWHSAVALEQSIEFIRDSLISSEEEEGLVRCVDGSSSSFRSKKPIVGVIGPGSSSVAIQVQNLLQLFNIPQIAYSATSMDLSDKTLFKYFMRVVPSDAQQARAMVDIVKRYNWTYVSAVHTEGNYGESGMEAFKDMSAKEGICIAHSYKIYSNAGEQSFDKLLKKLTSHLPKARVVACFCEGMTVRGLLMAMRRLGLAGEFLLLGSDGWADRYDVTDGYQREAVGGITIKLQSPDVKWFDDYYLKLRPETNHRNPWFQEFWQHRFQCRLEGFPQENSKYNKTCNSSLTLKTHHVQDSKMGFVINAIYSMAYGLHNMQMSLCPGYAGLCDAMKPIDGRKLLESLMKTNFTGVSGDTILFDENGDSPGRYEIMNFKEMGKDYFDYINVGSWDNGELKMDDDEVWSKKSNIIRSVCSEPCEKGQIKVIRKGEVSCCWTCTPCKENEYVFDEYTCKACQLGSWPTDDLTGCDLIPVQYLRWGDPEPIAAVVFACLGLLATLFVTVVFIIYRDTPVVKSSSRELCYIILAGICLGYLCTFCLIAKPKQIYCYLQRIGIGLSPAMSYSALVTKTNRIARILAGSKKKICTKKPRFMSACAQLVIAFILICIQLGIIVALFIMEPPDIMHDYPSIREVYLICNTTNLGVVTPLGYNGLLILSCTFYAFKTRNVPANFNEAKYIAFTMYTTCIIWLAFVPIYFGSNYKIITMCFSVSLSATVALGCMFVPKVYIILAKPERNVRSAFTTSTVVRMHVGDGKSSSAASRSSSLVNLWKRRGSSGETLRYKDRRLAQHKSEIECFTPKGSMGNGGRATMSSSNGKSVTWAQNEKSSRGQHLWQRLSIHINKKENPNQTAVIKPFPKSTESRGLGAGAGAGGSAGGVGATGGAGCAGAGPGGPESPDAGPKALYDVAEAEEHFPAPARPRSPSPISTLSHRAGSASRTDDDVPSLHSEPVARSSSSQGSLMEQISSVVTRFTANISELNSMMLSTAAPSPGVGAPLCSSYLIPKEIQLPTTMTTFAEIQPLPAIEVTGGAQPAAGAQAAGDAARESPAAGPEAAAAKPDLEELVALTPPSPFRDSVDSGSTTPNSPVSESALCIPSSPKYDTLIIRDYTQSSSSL
row,SMILES,EC50 [nM]
1,CN1CCN(CCOc2cc(N3CCN(C(=O)Cn4nc(-c5ccc(F)cc5)nc4-c4ccc(F)cc4)CC3)ncn2)CC1 [Example 07.09.28.],523
2,O=C(Cn1nc(-c2ccc(F)cc2)nc1-c1ccc(F)cc1)N1CCN(c2cc(OCC3CCOCC3)ncn2)CC1 [Example 07.09.29.],44
3,COC[C@H](C)Oc1cc(N2CCN(C(=O)Cn3nc(-c4ccc(F)cc4)nc3-c3ccc(F)cc3)CC2)ncn1 [Example 07.09.30.],75
4,COc1ccc(-c2nc(-c3ccccc3)n(CC(=O)N3CCN(c4ncccn4)CC3)n2)cc1 [Example 07.10.02.],37
5,CCc1cccc(-c2nc(-c3ccccc3)n(CC(=O)N3CCN(c4ncccn4)CC3)n2)c1 [Example 07.10.03.],15
6,CCOc1cccc(-c2nc(-c3ccccc3)n(CC(=O)N3CCN(c4ncccn4)CC3)n2)c1 [Example 07.10.04.],43
7,Cc1cccc(-c2nc(-c3ccccc3)n(CC(=O)N3CCN(c4ncccn4)CC3)n2)c1 [Example 07.10.05.],17
8,N#Cc1cccc(-c2nc(-c3ccccc3)n(CC(=O)N3CCN(c4ncccn4)CC3)n2)c1 [Example 07.10.06.],164
9,COc1cccc(-c2nc(-c3ccccc3)n(CC(=O)N3CCN(c4ncccn4)CC3)n2)c1 [Example 07.10.10.],50
10,Cc1ccc(-c2nc(-c3ccccc3)n(CC(=O)N3CCN(c4ncccn4)CC3)n2)cc1 [Example 07.10.12.],23
11,Cc1cc(C)cc(-c2nc(-c3ccccc3)n(CC(=O)N3CCN(c4ncccn4)CC3)n2)c1 [Example 07.10.16.],31
12,COc1ccc(-c2nc(-c3ccccc3)n(CC(=O)N3CCN(c4ncccn4)CC3)n2)cc1C [Example 07.10.17.],43
13,COCc1ccc(-c2nc(-c3ccccc3)nn2CC(=O)N2CCN(c3ncccn3)CC2)cc1 [Example 07.10.24.],300
14,N#Cc1ccc(-c2nc(-c3ccccc3)nn2CC(=O)N2CCN(c3ncccn3)CC2)cc1 [Example 07.10.25.],639
15,O=C(Cn1nc(-c2ccccc2)nc1C1=CCCCC1)N1CCN(c2ncccn2)CC1 [Example 07.10.26.],543
16,C=C(C)c1nc(-c2ccccc2)nn1CC(=O)N1CCN(c2ncccn2)CC1 [Example 07.10.27.],1470
17,O=C(Cn1nc(-c2ccccc2)nc1-c1ccc(CN2CCOCC2)cc1)N1CCN(c2ncccn2)CC1 [Example 07.10.28.],804
18,COc1cc(N2CCN(C(=O)Cn3nc(-c4ccc(C5CC5)cc4)nc3-c3ccccc3)CC2)ncn1 [Example 07.10.29.],219
19,COc1cc(N2CCN(C(=O)Cn3nc(-c4cc(C)cc(C)c4)nc3-c3ccccc3)CC2)ncn1 [Example 07.10.36.],121
20,COc1cc(N2CCN(C(=O)Cn3nc(-c4ccc(F)c(Cl)c4)nc3-c3ccccc3)CC2)ncn1 [Example 07.10.37.],101

# The remaining compounds from weak to strong by EC50, led by results:
row,EC50 [nM],SMILES
1,1500,N#CCc1ccc(-c2nc(-c3ccccc3)nn2CC(=O)N2CCN(c3ncccn3)CC2)cc1 [Example 07.10.21.]
2,1050,CC(C)Oc1ccc(-c2nc(-c3ccccc3)n(CC(=O)N3CCN(c4ncccn4)CC3)n2)cc1 [Example 07.10.18.]
3,553,COc1cc(OC)cc(-c2nc(-c3ccccc3)n(CC(=O)N3CCN(c4ncccn4)CC3)n2)c1 [Example 07.10.09.]
4,459,O=C(Cn1nc(-c2ccccc2)nc1C1=CCCC1)N1CCN(c2ncccn2)CC1 [Example 07.10.23.]
5,416,O=C(Cn1nc(-c2ccc(F)cc2)nc1C#CC1CCCCC1)N1CCN(c2ccccn2)CC1 [Example 07.11.02.]
6,389,COc1cc(N2CCN(C(=O)Cn3nc(-c4cc(F)c(F)c(F)c4)nc3-c3ccccc3)CC2)ncn1 [Example 07.10.39.]
7,359,COc1cc(N2CCN(C(=O)Cn3nc(-c4ccc(F)c(F)c4)nc3-c3ccccc3)CC2)ncn1 [Example 07.10.33.]
8,270,COc1cc(N2CCN(C(=O)Cn3nc(-c4ccc(F)c(C(F)(F)F)c4)nc3-c3ccccc3)CC2)ncn1 [Example 07.10.31.]
9,233,Cc1cccc(-c2nc(-c3ccccc3)nn2CC(=O)N2CCN(c3ncccn3)CC2)c1 [Example 07.10.19.]
10,225,COc1cc(N2CCN(C(=O)Cn3nc(-c4ccc(F)cc4)nc3-c3ccccc3)CC2)ncn1 [Example 07.10.32.]
11,189,O=C(Cn1nc(-c2cccc(F)c2)nc1-c1ccccc1)N1CCN(c2ncccn2)CC1 [Example 07.10.07.]
12,182,COc1ccc(-c2nc(-c3ccc(F)cc3)nn2CC(=O)N2CCN(c3ccccn3)CC2)cc1 [Example 07.10.41.]
13,181,COCc1cccc(-c2nc(-c3ccccc3)n(CC(=O)N3CCN(c4ncccn4)CC3)n2)c1 [Example 07.10.08.]
14,157,COc1cc(N2CCN(C(=O)Cn3nc(-c4cccc(C(C)C)c4)nc3-c3ccccc3)CC2)ncn1 [Example 07.10.34.]
15,128,O=C(Cn1nc(-c2ccc(F)cc2)nc1-c1ccccc1)N1CCN(c2ccccn2)CC1 [Example 07.10.40.]
16,98,COc1cc(N2CCN(C(=O)Cn3nc(-c4cccc(C)c4)nc3-c3ccccc3)CC2)ncn1 [Example 07.10.35.]
17,98,"O=C(Cn1nc(-c2ccc(F)cc2)nc1C#Cc1ccccc1)N1CCN(c2ccccn2)CC1 [Example 07.11.01., 2-(3-(4-fluoro-phenyl)-5-phenylethynyl-(1,2,4)triazol-1-yl)-1-(4-pyridin-2-yl-piperazin-1-yl)-ethanone]"
18,87,Cc1ccc(-c2nc(-c3ccccc3)nn2CC(=O)N2CCN(c3ncccn3)CC2)cc1 [Example 07.10.22.]
19,77,CCOc1ccc(-c2nc(-c3ccccc3)n(CC(=O)N3CCN(c4ncccn4)CC3)n2)cc1 [Example 07.10.13.]
20,50,COc1cc(N2CCN(C(=O)Cn3nc(-c4ccc(C)c(C)c4)nc3-c3ccccc3)CC2)ncn1 [Example 07.10.30.]
21,35,CC(C)c1ccc(-c2nc(-c3ccccc3)nn2CC(=O)N2CCN(c3ncccn3)CC2)cc1 [Example 07.10.20.]
22,33,O=C(Cn1nc(-c2ccc(F)cc2)nc1-c1ccccc1)N1CCN(c2ncccn2)CC1 [Example 07.10.14.]
23,24,Cc1ccc(-c2nc(-c3ccccc3)n(CC(=O)N3CCN(c4ncccn4)CC3)n2)cc1C [Example 07.10.15.]
24,11,"Cc1cc(-c2nc(-c3ccccc3)n(CC(=O)N3CCN(c4ncccn4)CC3)n2)ccc1F [Example 07.10.01., 2-(3-(4-fluoro-3-methyl-phenyl)-5-phenyl-(1,2,4)triazol-1-yl)-1-(4-pyrimidin-2-yl-piperazin-1-yl)-ethanone]"
